What all share (experiment): In vitro antimicrobial activity, MIC by broth microdilution (CLSI)
Holding throughout (assay type): cell-based
In general terms: Broth dilution looks for growth in wells or tubes with falling amounts of substance.

One test has as its system A. baumannii JMI2346. The note with it: Acinetobacter baumannii, JMI2346; OXA-51, TEM, ESBL and OXA-type carbapenemase producing strain; 5×10^5 cfu/mL; cation-adjusted Iso-Sensitest broth containing human Apo-transferrin; read-out: Minimum Inhibitory Concentration (MIC) A. baumannii JMI:2346. Summed up:
(§1)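 MIC (μg/mL) by CLSI broth microdilution, inoculum 5×10^5 cfu/mL, in cation-adjusted Iso-Sensitest broth containing human apo-transferrin.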

The subject of the next test is K. pneumoniae SR01358. As to conditions: Klebsiella pneumoniae, SR01358; KPC-2, ESBL and KPC-type carbapenemase producing strain; 5×10^5 cfu/mL; cation-adjusted Iso-Sensitest broth containing human Apo-transferrin; read-out: Minimum Inhibitory Concentration (MIC) K. pneumoniae SR01358. Summed up:
as §1

The subject of a further test is A. baumannii JMI7. As to conditions: Acinetobacter baumannii, JMI7; PER-1, OXA-23, 51, ESBL and OXA-type carbapenemase producing strain; 5×10^5 cfu/mL; cation-adjusted Iso-Sensitest broth containing human Apo-transferrin; read-out: Minimum Inhibitory Concentration (MIC) A. baumannii JMI:7. The method, boiled down:
as §1

Another test relates to E. Coli JMI1890. As to conditions: Escherichia coli; PER-1, TEM-1, ESBL producing strain; 5×10^5 cfu/mL; cation-adjusted Iso-Sensitest broth containing human Apo-transferrin; read-out: Minimum Inhibitory Concentration (MIC) E. Coli JMI:1890. Summed up: as §1

≈ marks a conversion by molar mass, not a printed value.

`C[C@@H]1S[C@@H]2[C@H](NC(=O)/C(=N\OC(C)(C)C(=O)O)c3csc(N)n3)C(=O)N2C(C(=O)[O-])=C1C[N+]12CCC(CC1)N(C(=O)c1cn(C)c3cc(O)c(O)c(Cl)c3c1=O)CC2` [Compound I-160, (4S,6R,7R)-7-((Z)-2-(2-aminothiazol-4-yl)-2-(((2-carboxypropan-2-yl)oxy)imino)acetamido)-3-((4-(5-chloro-6,7-dihydroxy-1-methyl-4-oxo-1,4-dihydroquinoline-3-carbonyl)-1,4-diazabicyclo[3.2.2]nonan-1-ium-1-yl)methyl)-4-methyl-8-oxo-5-thia-1-azabicyclo[4.2.0]oct-2-ene-2-carboxylate]: the MIC in the test with A. baumannii JMI2346 was 0.5 µg/mL (≈ 0.582 µM); in the test with K. pneumoniae SR01358, 0.063 µg/mL (≈ 0.0733 µM); in the test with A. baumannii JMI7, 0.25 µg/mL (≈ 0.291 µM); with E. Coli JMI1890, at most 0.031 µg/mL.
For `C[C@@H]1S[C@@H]2[C@H](NC(=O)/C(=N\OC(C)(C)C(=O)O)c3csc(N)n3)C(=O)N2C(C(=O)[O-])=C1C[N+]12CCC(Cn3cnc4cc(O)c(O)c(Cl)c4c3=O)(CC1)CC2` [Compound I-161, (4S,6R,7R)-7-((Z)-2-(2-aminothiazol-4-yl)-2-(((2-carboxypropan-2-yl)oxy)imino)acetamido)-3-((4-((5-chloro-6,7-dihydroxy-4-oxoquinazolin-3(4H)-yl)methyl)quinuclidin-1-ium-1-yl)methyl)-4-methyl-8-oxo-5-thia-1-azabicyclo[4.2.0]oct-2-ene-2-carboxylate], the MIC was 4 µg/mL (≈ 4.89 µM) in the test on A. baumannii JMI2346, at most 0.031 µg/mL in the test with K. pneumoniae SR01358, 0.25 µg/mL (≈ 0.306 µM) with A. baumannii JMI7 and 0.125 µg/mL (≈ 0.153 µM) in the test with E. Coli JMI1890.
As for `C[C@@H]1S[C@@H]2[C@H](NC(=O)/C(=N\OC(C)(C)C(=O)O)c3csc(N)n3)C(=O)N2C(C(=O)[O-])=C1C[N+]12CCC(Cn3cnc4cc(O)c(O)cc4c3=O)(CC1)C2` [Compound I-164, (4S,6R,7R)-7-((Z)-2-(2-aminothiazol-4-yl)-2-(((2-carboxypropan-2-yl)oxy)imino)acetamido)-3-((4-((6,7-dihydroxy-4-oxoquinazolin-3(4H)-yl)methyl)-1-azabicyclo[2.2.1]heptan-1-ium-1-yl)methyl)-4-methyl-8-oxo-5-thia-1-azabicyclo[4.2.0]oct-2-ene-2-carboxylate], the MIC in the test with A. baumannii JMI2346 is 2 µg/mL (≈ 2.6 µM); in the test with K. pneumoniae SR01358, at most 0.031 µg/mL; in the test with A. baumannii JMI7, 0.5 µg/mL (≈ 0.65 µM); with E. Coli JMI1890, at most 0.031 µg/mL.
`C[C@@H]1S[C@@H]2[C@H](NC(=O)/C(=N\OC(C)(C)C(=O)O)c3csc(N)n3)C(=O)N2C(C(=O)[O-])=C1C[N+]12CCC(Cn3cnc4cc(O)c(O)c(Cl)c4c3=O)(CC1)C2` [Compound I-165, (4S,6R,7R)-7-((Z)-2-(2-aminothiazol-4-yl)-2-(((2-carboxypropan-2-yl)oxy)imino)acetamido)-3-((4-((5-chloro-6,7-dihydroxy-4-oxoquinazolin-3(4H)-yl)methyl)-1-azabicyclo[2.2.1]heptan-1-ium-1-yl)methyl)-4-methyl-8-oxo-5-thia-1-azabicyclo[4.2.0]oct-2-ene-2-carboxylate]: the MIC in the test with A. baumannii JMI2346 is 1 µg/mL (≈ 1.24 µM); in the test on K. pneumoniae SR01358 it was at most 0.031 µg/mL; with A. baumannii JMI7, 0.5 µg/mL (≈ 0.622 µM); in the test on E. Coli JMI1890, at most 0.031 µg/mL.
Turning to `C[C@@H]1S[C@@H]2[C@H](NC(=O)/C(=N\OC(C)(C)C(=O)[O-])c3csc(N)n3)C(=O)N2C(C(=O)[O-])=C1C[N+]12CCC(CNC(=O)c3c[nH]c4cc(O)c(O)c(Cl)c4c3=O)(CC1)CC2.[Na+]` [Compound I-169, (4S,6R,7R)-7-((Z)-2-(2-aminothiazol-4-yl)-2-(((2-carboxypropan-2-yl)oxy)imino)acetamido)-3-((4-((5-chloro-6,7-dihydroxy-4-oxo-1,4-dihydroquinoline-3-carboxamido)methyl)quinuclidin-1-ium-1-yl)methyl)-4-methyl-8-oxo-5-thia-1-azabicyclo[4.2.0]oct-2-ene-2-carboxylate, Sodium salt], the MIC in the test with A. baumannii JMI2346 is 0.5 µg/mL; with K. pneumoniae SR01358, at most 0.031 µg/mL; in the test on A. baumannii JMI7, 0.25 µg/mL; in the test on E. Coli JMI1890 it was 0.063 µg/mL.
For the compound `C[C@@H]1S[C@@H]2[C@H](NC(=O)/C(=N\OC(C)(C)C(=O)[O-])c3csc(N)n3)C(=O)N2C(C(=O)[O-])=C1C[N+]12CCC(CC1)N(C(=O)c1c[nH]c3cc(O)c(O)cc3c1=O)CC2.[Na+]` [Compound I-174, (4S,6R,7R)-7-((Z)-2-(2-aminothiazol-4-yl)-2-(((2-carboxypropan-2-yl)oxy)imino)acetamido)-3-((4-(6,7-dihydroxy-4-oxo-1,4-dihydroquinoline-3-carbonyl)-1,4-diazabicyclo[3.2.2]nonan-1-ium-1-yl)methyl)-4-methyl-8-oxo-5-thia-1-azabicyclo[4.2.0]oct-2-ene-2-carboxylate, Sodium salt], the MIC with A. baumannii JMI2346 was 1 µg/mL; in the test on K. pneumoniae SR01358 it was at most 0.031 µg/mL; in the test on A. baumannii JMI7, 0.25 µg/mL; in the test with E. Coli JMI1890, 4 µg/mL.
Consider `C[C@@H]1S[C@@H]2[C@H](NC(=O)/C(=N\OC(C)(C)C(=O)[O-])c3csc(N)n3)C(=O)N2C(C(=O)[O-])=C1C[N+]12CCC(CC1)N(C(=O)c1c[nH]c3cc(O)c(O)c(Cl)c3c1=O)CC2.[Na+]` [Compound I-177, (4S,6R,7R)-7-((Z)-2-(2-aminothiazol-4-yl)-2-(((2-carboxypropan-2-yl)oxy)imino)acetamido)-3-((4-(5-chloro-6,7-dihydroxy-4-oxo-1,4-dihydroquinoline-3-carbonyl)-1,4-diazabicyclo[3.2.2]nonan-1-ium-1-yl)methyl)-4-methyl-8-oxo-5-thia-1-azabicyclo [4.2.0]oct-2-ene-2-carboxylate, Sodium salt], for which the MIC is 0.5 µg/mL in the test on A. baumannii JMI2346, at most 0.031 µg/mL with K. pneumoniae SR01358, 0.25 µg/mL in the test on A. baumannii JMI7 and 0.063 µg/mL in the test with E. Coli JMI1890.
The like results for `C[C@@H]1S[C@@H]2[C@H](NC(=O)/C(=N\OC(C)(C)C(=O)[O-])c3csc(N)n3)C(=O)N2C(C(=O)[O-])=C1C[N+]12CCC(Cn3[nH]c(=O)c4cc(O)c(O)cc4c3=O)(CC1)C2.[Na+]` [Compound I-180] were, in that order, 1 µg/mL, at most 0.031 µg/mL, 0.5 µg/mL and at most 0.031 µg/mL.
